The supplement of paper PMC10307832

Key:
Experiment in all cases: relative viability (nuclei count vs DMSO), 5 days (fraction); higher = more cells survive
[1] = compound: CC1=CC=C(C=C1)C(=O)CN2C3=C(CCCC3)SC2=N [Pifithrin_alpha] + NC(=O)Nc1cc(-c2cccc(F)c2)sc1C(=O)N[C@H]1CCCNC1 [AZD7762] (partner 0.2 µM)
Summary of the method: (§1)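 Values are medians from duplicate plates. Each reflects relative viability, defined as the nuclei count of treated wells over that of vehicle wells. Lung cancer cell lines in 1536-well plates were pin-tool dosed one day after seeding with one drug alone or with a fixed anchor-drug dose plus five library-drug doses (not always all listed) in √10 steps, then fixed, stained and imaged at 4× after 5 days.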

[2] = compound: CC1=CC=C(C=C1)C(=O)CN2C3=C(CCCC3)SC2=N [Pifithrin_alpha] + O=C(CCCCCCC(=O)Nc1ccccc1)NO [Vorinostat] (partner 1 µM)
Summary of the method: as §1

Axitinib + Bortezomib = compound: CNC(=O)c1ccccc1Sc1ccc2c(/C=C/c3ccccn3)n[nH]c2c1 [Axitinib] + CC(C)C[C@H](NC(=O)[C@H](Cc1ccccc1)NC(=O)c1cnccn1)B(O)O [Bortezomib] (partner 0.002 µM)
Summary of the method: as §1

Axitinib + Alpelisib = compound: CNC(=O)c1ccccc1Sc1ccc2c(/C=C/c3ccccn3)n[nH]c2c1 [Axitinib] + Cc1nc(NC(=O)N2CCC[C@H]2C(N)=O)sc1-c1ccnc(C(C)(C)C(F)(F)F)c1 [Alpelisib] (partner 2 µM)
Summary of the method: as §1

Row | Cell Line | relative viability ([1]; first compound 1 µM) | relative viability ([1]; first compound 3.162 µM) | relative viability ([1]; first compound 10 µM) | relative viability ([1]; first compound 100 µM) | relative viability ([2]; first compound 1 µM) | relative viability ([2]; first compound 3.162 µM) | relative viability ([2]; first compound 10 µM) | relative viability ([2]; first compound 100 µM) | relative viability (Axitinib + Bortezomib; first compound 0.005 µM) | relative viability (Axitinib + Bortezomib; first compound 0.01581 µM) | relative viability (Axitinib + Bortezomib; first compound 0.05 µM) | relative viability (Axitinib + Bortezomib; first compound 0.1581 µM) | relative viability (Axitinib + Bortezomib; first compound 0.5 µM) | relative viability (Axitinib + Alpelisib; first compound 0.005 µM) | relative viability (Axitinib + Alpelisib; first compound 0.01581 µM) | relative viability (Axitinib + Alpelisib; first compound 0.05 µM) | relative viability (Axitinib + Alpelisib; first compound 0.1581 µM) | relative viability (Axitinib + Alpelisib; first compound 0.5 µM) | relative viability ([1]; first compound 31.62 µM) | relative viability ([2]; first compound 31.62 µM)
1 | HCC-366 | 0.23 | 0.183 | 0.183 | 0.174 | 0.252 | 0.204 | 0.171 | 0.209 | 0.977 | 0.994 | 1.11 | 1 | 1.13 | 0.616 | 0.482 | 0.505 | 0.387 | 0.619 | – | –
2 | HCC-827 | 0.159 | 0.177 | 0.189 | 0.154 | 0.156 | 0.894 | 0.765 | 0.787 | 1.11 | 1.06 | 1.04 | 1.02 | 1.15 | 0.955 | 0.923 | 0.991 | 0.978 | 1.08 | 0.189 | 0.709
3 | HOP-62 | 1.24 | 0.803 | 0.769 | 0.809 | 0.436 | 0.603 | 0.645 | 0.658 | 1.02 | 0.776 | 0.668 | 0.891 | 1.21 | 1.07 | 1.22 | 0.78 | 0.998 | 1.2 | 0.659 | 0.375
4 | LC-2-ad | 0.969 | 0.849 | 0.705 | 0.642 | 0.692 | 0.719 | 0.689 | 0.521 | 1.1 | 1.06 | 0.93 | 1.04 | 1.16 | 0.942 | 0.859 | 0.83 | 0.907 | 0.903 | 0.6 | 0.465
5 | LCLC-97TM1 | 0.222 | 0.231 | 0.382 | 0.239 | – | 0.857 | 0.852 | 0.726 | 0.732 | 0.419 | 0.585 | 0.515 | 0.736 | 0.252 | 0.285 | 0.237 | 0.205 | 0.247 | – | –
6 | LCLC-103H | 0.792 | 0.846 | 0.791 | 0.85 | 0.565 | 0.884 | 0.782 | 0.761 | 1.07 | 1.07 | 1.18 | 1.03 | 1.07 | 0.987 | 0.922 | 0.845 | 0.621 | 0.999 | 0.721 | 0.733
7 | LOU-NH91 | 0.625 | 0.755 | 0.683 | 0.604 | 0.8 | 0.868 | 0.821 | 0.739 | 0.517 | 0.537 | 0.43 | 0.475 | 0.57 | 0.772 | 0.512 | 0.715 | 0.702 | 0.778 | 0.589 | 0.597
8 | LU99A | 0.359 | 0.459 | 0.341 | 0.352 | 0.491 | 0.646 | 0.373 | 0.463 | 1.1 | 1.09 | 1.13 | 1.12 | 1.12 | 0.492 | 0.498 | 0.533 | 0.515 | 0.522 | – | –
9 | LXF-289 | 1.16 | 1.12 | 1.23 | 1.13 | 0.718 | 0.805 | 0.79 | 0.782 | 0.977 | 0.918 | 0.974 | 0.974 | 1 | 1.05 | 0.961 | 1.03 | 0.958 | 1.05 | 1.12 | 0.662
10 | NCI-H23 | 0.229 | 0.279 | 0.265 | 0.268 | 0.457 | 0.4 | 0.604 | 0.584 | 1.06 | 1.09 | 1 | 1.03 | 1.02 | 0.83 | 0.862 | 0.554 | 0.861 | 0.796 | 0.172 | 0.343
11 | NCI-H322M | 0.413 | 0.462 | 0.48 | 0.487 | 0.807 | 0.811 | 0.802 | 0.845 | 1.34 | 1.07 | 1.12 | 1.2 | 1.12 | 0.834 | 0.688 | 0.729 | 0.944 | 0.893 | 0.498 | 0.788
12 | NCI-H441 | 1.34 | 1.16 | 1.3 | 1.06 | 0.766 | 0.735 | 0.876 | 0.931 | 0.626 | 0.54 | 0.444 | 0.465 | 0.443 | 0.79 | 0.72 | 0.965 | 0.561 | 0.852 | – | –
13 | NCI-H460 | 0.545 | 0.501 | 0.401 | 0.375 | 0.797 | 0.397 | 0.182 | 0.178 | 1.09 | 1.07 | 0.975 | 0.96 | 1.37 | 0.569 | 0.571 | 0.54 | 0.549 | 0.821 | – | 0.0968
14 | NCI-H596 | 1.18 | 0.967 | 0.926 | 1.03 | 0.594 | 0.603 | 0.603 | 0.65 | 0.859 | 0.887 | 1.08 | 1.11 | 0.995 | 0.503 | 0.624 | 0.531 | 0.599 | 0.553 | 0.939 | 0.585
15 | NCI-H647 | – | 0.368 | 0.307 | 0.287 | 0.514 | 0.565 | 0.592 | 0.53 | 1.04 | 1.1 | 0.94 | 1.01 | 1.08 | 1.27 | 1.24 | 1.28 | 1.11 | 1.6 | 0.361 | 0.482
16 | NCI-H727 | 0.478 | 0.57 | 0.571 | 0.48 | 0.461 | 1.18 | 1.14 | 1.35 | 1.1 | 0.854 | 1 | 0.868 | 0.795 | 0.612 | 0.524 | 1.43 | 0.538 | 0.783 | 0.51 | 0.777
17 | NCI-H838 | 0.875 | 0.909 | 0.832 | 0.884 | 0.593 | 0.591 | 0.555 | 0.525 | 0.961 | 1.01 | 0.902 | 0.726 | 0.965 | 1.12 | 1 | 1.05 | 1 | 1.18 | 0.744 | 0.567
